Paper PMC5427921, “PRL3 phosphatase active site is required for binding the putative magnesium transporter CNNM3” (Scientific Reports, 2017)

Target: T1, PRL3 (Homo sapiens, UniProt O75365)
T1 construct: gene PTP4A3; residues 1-169 in pET15b, His6 tag with thrombin site, N-terminal Gly-Ser-His extension left; wild type; expressed in E. coli
Assay: phosphorylation of catalytic Cys104 followed on Phos-tag SDS-PAGE
Assay type: biochemical
Conditions: no magnesium; 43 µM PRL3, 20 mM HEPES, 100 mM NaCl, 10 mM DTT, pH 7.0; 30 °C and room temperature; estimate from concentration dependence; covalent phosphocysteine formed

T1 sequence (O75365 1-169): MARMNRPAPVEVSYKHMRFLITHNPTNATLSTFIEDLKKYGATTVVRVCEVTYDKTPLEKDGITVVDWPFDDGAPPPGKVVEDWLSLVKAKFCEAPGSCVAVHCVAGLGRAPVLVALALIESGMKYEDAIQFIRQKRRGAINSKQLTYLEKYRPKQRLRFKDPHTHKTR

Work on `Nc1ncnc2c1ncn2[C@@H]1O[C@H](COP(=O)(O)OP(=O)(O)OP(=O)(O)O)[C@@H](O)[C@H]1O` [ATP] yielded a Km greater than 2000 µM.
